{"source": "patent US20250332178A1", "about": "“METHODS OF TREATING MYCOBACTERIAL INFECTIONS USING TETRACYCLINE COMPOUNDS” (priority 2018, published 2025)", "key": {"[1]": {"system": "M. abscessus subsp. abscessus CIP 104536", "experiment": "MIC according to CLSI guidelines", "conditions": "Mycobacteroides abscessus, CIP104536, read-out: Minimal Inhibitory Concentration (MIC)", "description": "Vials with M. abscessus suspensions were stored at −80° C. Cultures on solid medium were grown on Mueller Hinton II agar (BD), supplemented with 10% OADC and 0.5% glycerol for 10 days at 37° C. with 5% CO2."}, "[2]": {"system": "rapid-growing mycobacteria (RGM) isolates", "experiment": "MIC (CLSI broth dilution), all RGM isolates", "format": "cell-based, nontuberculous mycobacteria", "conditions": "RGM clinical isolates, all species"}, "Mycobacterium fortuitum": {"system": "Mycobacterium fortuitum", "experiment": "MIC by broth microdilution in CAMHB, clinical isolates", "format": "cell-based", "conditions": "Mycolicibacterium fortuitum; for MIC: read-out: MIC", "protocol": "(§1) A total of 24 clinical isolates of Mycobacterium abscessus, 22 clinical isolates of Mycobacterium chelonae and 20 clinical isolates of Mycobacterium fortuitum were tested in the study. The study also used the antibiotics tigecycline, doxycycline and amikacin for comparison purposes. […] Amikacin was dissolved in DMSO prior to freezing at −20° C. For susceptibility testing, stock solutions of antibiotic compounds were serially diluted in 50 μL of cation adjusted Mueller-Hinton broth (CAMHB) in polystryrene 96-well round-bottom microtiter plates. To each well, 50 μL of the appropriate mycobacterial cell suspension was added to yield a final concentration of about 1×10^5 CFU/mL. The inoculum used for each isolate was measured by titration in saline with Tween 80 and plating on MH agar. The Mycobacterium abscessus and Mycobacterium fortuitum titer plates were incubated at 37° C. in ambient air for 3-4 days and 5-7 days, respectively. The Mycobacterium chelonae titer plates were incubated at 30° C. in ambient air for 3-5 days. Each isolate was tested at least in duplicate. The MIC was defined as the lowest concentration of antimicrobial agent yielding no visible turbidity."}, "Mycobacterium chelonae": {"system": "Mycobacterium chelonae", "experiment": "MIC by broth microdilution in CAMHB, clinical isolates", "format": "cell-based", "conditions": "22 clinical isolates; read-out: MIC50", "protocol": "as §1"}, "Mycobacterium abscessus": {"system": "Mycobacterium abscessus", "experiment": "MIC by broth microdilution in CAMHB, clinical isolates", "format": "cell-based", "conditions": "Mycobacteroides abscessus; for MIC: read-out: MIC", "protocol": "as §1"}}, "note": "Like-named read-outs stand apart in the source and are kept apart here.", "data": [{"compound": "CN(C)c1cc(CNCC(C)(C)C)c(O)c2c1C[C@H]1C[C@H]3C(N(C)C)C(O)=C(C(N)=O)C(=O)[C@@]3(O)C(O)=C1C2=O", "note": "(stereo partly drawn) [Omadacycline, (4aS,5aR,12aS)-4,7-bis(dimethylamino)-3,10,12,12a-tetrahydroxy-9-((neopentylamino)methyl)-1,11-dioxo-1,4,4a,5,5a,6,11,12a-octahydrotetracene-2-carboxamide]", "values": [{"measurement": "MIC", "setting": "[1]", "value": 4, "unit": "µg/mL"}, {"measurement": "MIC50", "setting": "[2]; read-out: MIC50", "value": 0.25, "unit": "µg/mL"}, {"measurement": "MIC90", "setting": "[2]; read-out: MIC90", "value": 0.5, "unit": "µg/mL"}, {"measurement": "MIC", "setting": "Mycobacterium fortuitum; isolate No. 1, 3349", "value": 0.25, "unit": "µg/mL"}, {"measurement": "MIC", "setting": "Mycobacterium fortuitum; isolate No. 2, 3499", "value": 0.03, "unit": "µg/mL"}, {"measurement": "MIC", "setting": "Mycobacterium fortuitum; isolate No. 3, 2797", "value": 0.125, "unit": "µg/mL"}, {"measurement": "MIC", "setting": "Mycobacterium fortuitum; isolate No. 4, 32", "value": 0.25, "unit": "µg/mL"}, {"measurement": "MIC", "setting": "Mycobacterium fortuitum; isolate No. 5, 33", "value": 0.125, "unit": "µg/mL"}, {"measurement": "MIC", "setting": "Mycobacterium fortuitum; isolate No. 6, 3489", "value": 0.125, "unit": "µg/mL"}, {"measurement": "MIC", "setting": "Mycobacterium fortuitum; isolate No. 7, 3491", "value": 0.125, "unit": "µg/mL"}, {"measurement": "MIC", "setting": "Mycobacterium fortuitum; isolate No. 8, 54", "value": 0.06, "unit": "µg/mL"}, {"measurement": "MIC", "setting": "Mycobacterium fortuitum; isolate No. 9, 38", "value": 0.125, "unit": "µg/mL"}, {"measurement": "MIC", "setting": "Mycobacterium fortuitum; isolate No. 10, 36", "value": 0.125, "unit": "µg/mL"}, {"measurement": "MIC", "setting": "Mycobacterium fortuitum; isolate No. 11, 3480", "value": 0.25, "unit": "µg/mL"}, {"measurement": "MIC", "setting": "Mycobacterium fortuitum; isolate No. 12, 3126", "value": 0.125, "unit": "µg/mL"}, {"measurement": "MIC", "setting": "Mycobacterium fortuitum; isolate No. 13, 3579", "value": 0.25, "unit": "µg/mL"}, {"measurement": "MIC", "setting": "Mycobacterium fortuitum; isolate No. 14, 7484", "value": 0.5, "unit": "µg/mL"}, {"measurement": "MIC", "setting": "Mycobacterium fortuitum; isolate No. 15, 3488", "value": 0.5, "unit": "µg/mL"}, {"measurement": "MIC", "setting": "Mycobacterium fortuitum; isolate No. 16, 3276", "value": 0.25, "unit": "µg/mL"}, {"measurement": "MIC", "setting": "Mycobacterium fortuitum; isolate No. 17, 3442", "value": 1, "unit": "µg/mL"}, {"measurement": "MIC", "setting": "Mycobacterium fortuitum; isolate No. 18, 3316", "value": 0.125, "unit": "µg/mL"}, {"measurement": "MIC", "setting": "Mycobacterium fortuitum; isolate No. 19, 3490", "value": 0.25, "unit": "µg/mL"}, {"measurement": "MIC", "setting": "Mycobacterium fortuitum; isolate No. 20, 2491", "value": 1, "unit": "µg/mL"}, {"measurement": "MIC50", "setting": "Mycobacterium fortuitum; 20 clinical isolates, read-out: MIC50", "value": 0.125, "unit": "µg/mL"}, {"measurement": "MIC90", "setting": "Mycobacterium fortuitum; 20 clinical isolates, read-out: MIC90", "value": 0.5, "unit": "µg/mL"}, {"measurement": "MIC50", "setting": "Mycobacterium chelonae", "value": 0.125, "unit": "µg/mL"}, {"measurement": "MIC", "setting": "Mycobacterium abscessus; isolate No. 1, BB2", "value": 1, "unit": "µg/mL"}, {"measurement": "MIC", "setting": "Mycobacterium abscessus; isolate No. 2, BB4", "value": 4, "unit": "µg/mL"}, {"measurement": "MIC", "setting": "Mycobacterium abscessus; isolate No. 3, 5922", "value": 0.125, "unit": "µg/mL"}, {"measurement": "MIC", "setting": "Mycobacterium abscessus; isolate No. 4, BB3", "value": 0.06, "unit": "µg/mL"}, {"measurement": "MIC", "setting": "Mycobacterium abscessus; isolate No. 5, BB6", "value": 0.06, "unit": "µg/mL"}, {"measurement": "MIC", "setting": "Mycobacterium abscessus; isolate No. 6, 5908", "value": 1, "unit": "µg/mL"}, {"measurement": "MIC", "setting": "Mycobacterium abscessus; isolate No. 7, BB7", "value": 2, "unit": "µg/mL"}, {"measurement": "MIC", "setting": "Mycobacterium abscessus; isolate No. 8, 6031", "value": 0.25, "unit": "µg/mL"}, {"measurement": "MIC", "setting": "Mycobacterium abscessus; isolate No. 9, 5785", "value": 0.25, "unit": "µg/mL"}, {"measurement": "MIC", "setting": "Mycobacterium abscessus; isolate No. 10, BB8", "value": 1, "unit": "µg/mL"}, {"measurement": "MIC", "setting": "Mycobacterium abscessus; isolate No. 11, 6111", "value": 1, "unit": "µg/mL"}, {"measurement": "MIC", "setting": "Mycobacterium abscessus; isolate No. 12, 6005", "value": 1, "unit": "µg/mL"}, {"measurement": "MIC", "setting": "Mycobacterium abscessus; isolate No. 13, 5605", "value": 1, "unit": "µg/mL"}, {"measurement": "MIC", "setting": "Mycobacterium abscessus; isolate No. 14, 5931", "value": 1, "unit": "µg/mL"}, {"measurement": "MIC", "setting": "Mycobacterium abscessus; isolate No. 15, BB1", "value": 2, "unit": "µg/mL"}, {"measurement": "MIC", "setting": "Mycobacterium abscessus; isolate No. 16, BB5", "value": 2, "unit": "µg/mL"}, {"measurement": "MIC", "setting": "Mycobacterium abscessus; isolate No. 17, 5812", "value": 2, "unit": "µg/mL"}, {"measurement": "MIC", "setting": "Mycobacterium abscessus; isolate No. 18, 5901", "value": 1, "unit": "µg/mL"}, {"measurement": "MIC", "setting": "Mycobacterium abscessus; isolate No. 19, 5960", "value": 8, "unit": "µg/mL"}, {"measurement": "MIC", "setting": "Mycobacterium abscessus; isolate No. 20, 6142", "value": 1, "unit": "µg/mL"}, {"measurement": "MIC", "setting": "Mycobacterium abscessus; isolate No. 21, 5922", "value": 0.5, "unit": "µg/mL"}, {"measurement": "MIC", "setting": "Mycobacterium abscessus; isolate No. 22, LT 949", "value": 1, "unit": "µg/mL"}, {"measurement": "MIC", "setting": "Mycobacterium abscessus; isolate No. 23, 6025", "value": 1, "unit": "µg/mL"}, {"measurement": "MIC", "setting": "Mycobacterium abscessus; isolate No. 24, 6153", "value": 2, "unit": "µg/mL"}, {"measurement": "MIC50", "setting": "Mycobacterium abscessus; 24 clinical isolates (tigecycline: subset N=14), read-out: MIC50", "value": 1, "unit": "µg/mL"}, {"measurement": "MIC90", "setting": "Mycobacterium abscessus; 24 clinical isolates (tigecycline: subset N=14), read-out: MIC90", "value": 2, "unit": "µg/mL"}]}]}
